Source: US12427212B2, “Nectin-4 binding miniproteins, conjugates and uses thereof” (Aktis Oncology, Inc., priority 2023, dated 2025)
Bridges are numbered along the chain shown (N, C = ends). [ ]: non-standard residue; d: D form. The star is where a group is joined. DOTA = O=C(O)CN1CCN(CC(=O)O)CCN(CC(=O)*)CCN(CC(=O)O)CC1; Arg(Me2s) = CN=C(NC)NCCC[C@H](N)C(=O)O; PEG4 = NCCOCCOCCOCCOCCC(=O)O

Columns and labels:
[1] = In vivo biodistribution of 111In-labeled miniproteins by SPECT/CT, HT-1376 xenograft; parameters: species or system mouse; conditions: female, athymic nude, mouse, in vivo
Excerpt: HT-1376 is a human cell line that expresses Nectin-4.
Humane endpoints: All animals were euthanized following the final imaging time point and carcasses were discarded according to IACUC protocols.
Image Processing: Images were generated as SPECT/CT pairs with the SPECT reported in units of activity.
Image generation: After the preprocessing described in A, individual maximum intensity projections (MIPs) were created with VivoQuant software for each subject at each time point and scaled in percent injected dose per gram (% ID/g). The CT for each image was windowed from −500 to 4500 Hounsfield Units (HU). The SPECT was windowed at various ranges to highlight different regions of uptake. Images were then stitched together using Image Magick based python tools to create montages of subjects over time and time points over groups.

Nectin-4 = biological target: T1, Nectin-4 (Homo sapiens, UniProt Q96NY8); assay: DELFIA whole cell binding assay, equilibrium binding affinity (KD), Table 2B; conditions: Table 2B, binding to Nectin-4; read-out: Binding Affinity (KD)
T1 sequence (Q96NY8 32-510): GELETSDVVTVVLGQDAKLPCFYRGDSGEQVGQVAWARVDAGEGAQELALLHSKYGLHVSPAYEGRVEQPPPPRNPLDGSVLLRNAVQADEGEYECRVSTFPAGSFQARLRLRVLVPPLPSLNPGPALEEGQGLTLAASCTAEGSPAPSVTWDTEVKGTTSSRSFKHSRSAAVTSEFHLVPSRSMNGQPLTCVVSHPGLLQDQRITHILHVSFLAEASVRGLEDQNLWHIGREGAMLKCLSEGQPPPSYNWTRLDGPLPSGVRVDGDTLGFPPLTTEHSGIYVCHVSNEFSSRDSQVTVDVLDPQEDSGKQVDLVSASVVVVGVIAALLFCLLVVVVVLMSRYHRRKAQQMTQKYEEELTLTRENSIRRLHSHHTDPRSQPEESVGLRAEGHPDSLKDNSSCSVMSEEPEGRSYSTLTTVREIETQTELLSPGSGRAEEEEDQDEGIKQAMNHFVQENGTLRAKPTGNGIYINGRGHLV
Protocol: A whole cell binding assay was used to estimate the equilibrium binding affinity (KD) or binding inhibition constant (Ki) of miniprotein ligands to cells expressing a target of interest. Cells were dispensed into a 384-well plate and incubated at 37° C., in 5% CO2 overnight. The next day cells were gently washed once in assay buffer prior to addition of europium chelated ligand. For KD determination, a miniprotein conjugated with europium chelate (DOTA or DTPA) in the presence or absence of 100-fold excess un-conjugated ligand was incubated with cells over 12 different concentrations ranging from 100 times below and above expected KD values. For Ki determination, a single concentration (KD equivalent concentration) of europium-chelate miniprotein was added to each well followed immediately by the addition of unconjugated competing ligand over 12 different concentrations ranging from 100 times below and above expected Ki values as before. The plate was incubated for 1.5 h at room temperature to reach binding equilibrium. Cells were then washed three times at room temperature with 1×PBS followed by the addition of 2 M HCl and incubated for two h at 37° C. Following this step, 2 M NaOH and fluorescent inducer solution were added to each well and incubated for 30 minutes at room temperature according to the manufacturer's protocol (Perkin-ELMER DELFIA assay). Plates were read on an Envision plate reader and a curve-fitting model was applied to estimate KD and Ki values using GraphPad Prism software. Mean DELFIA K; values for exemplary miniproteins are recorded in TABLE 9A.

[2] = In vitro metabolic stability in serum/plasma (percent parent remaining, LC-MS); type: in vitro ADME; conditions: mouse
Protocol: Exemplary miniproteins were spiked into biological matrices at initial concentration between 1-2 μM. Tested matrices were varied by species (mouse, rat, human) and type (plasma, serum, and kidney brush border membrane (kBBM) preparations tested each from 0.625-100 μg/mL protein content). Tested conditions were incubated with miniproteins at 37° C. for 4 h. At collection points of 0, 15, 30, 60, 120, 240 minutes, 50 μL of each condition were quenched by organic solvent (methanol or acetonitrile) or the addition of 4% phosphoric acid solution followed by solid-phase extraction. Fractions of each quenched timepoint were subsequently assayed for parent miniproteins concentration by high resolution LC-MS. Percent-parent-remaining-time plots were constructed from the ratio of each given time collection to the time-zero parent miniprotein. Percent-parent-remaining in mouse serum and plasma for exemplary miniproteins are recorded in TABLE 11.

## CC[C@H](C)[C@@H]1NC(=O)CNC(=O)[C@@H]2CCCN2C(=O)[C@H](CC(C)C)NC(=O)[C@H](Cc2ccc(O)cc2)NC(=O)[C@H](CC(N)=O)NC(=O)[C@H](Cc2ccccc2)NC(=O)[C@H](C)NC(=O)[C@H](CCC(N)=O)NC(=O)[C@H](CCC(N)=O)NC(=O)[C@H]([C@@H](C)CC)NC(=O)[C@H](Cc2ccc(O)cc2)NC(=O)[C@H](Cc2ccc(O)cc2)NC(=O)[C@@H]2CSSC[C@@H](C(=O)O)NC(=O)CNC(=O)[C@H](CC(C)C)NC(=O)[C@H](CC(N)=O)NC(=O)[C@H](CC(=O)O)NC(=O)[C@H](CC(C)C)NC(=O)[C@H]([C@@H](C)CC)NC(=O)[C@H](CCC(=O)O)NC(=O)[C@H](CCC(=O)O)NC(=O)[C@H]([C@@H](C)CC)NC(=O)[C@H](CSSC[C@H](NC(C)=O)C(=O)N[C@@H](CCC(=O)O)C(=O)N[C@@H](Cc3ccc(O)cc3)C(=O)N[C@@H](CC(=O)O)C(=O)N[C@@H](CCC(=O)O)C(=O)N[C@@H](CCC(=O)O)C(=O)N[C@@H](Cc3ccccc3)C(=O)N[C@@H](Cc3ccccc3)C(=O)N[C@@H]([C@@H](C)O)C(=O)N[C@@H](C)C(=O)N[C@@H](CC(C)C)C(=O)N[C@@H](CCCCN)C(=O)N[C@@H](CCCCN)C(=O)N[C@@H](CC(C)C)C(=O)N[C@@H](CCCNC(=N)N)C(=O)NCC(=O)NCC(=O)N[C@@H](CC(=O)O)C(=O)N[C@@H]([C@@H](C)CC)C(=O)N2)NC1=O [Compound C104]
[1]
  tissue uptake at 4 h: 69.6 %ID/g
  tissue uptake at 24 h: 40.6 %ID/g
Nectin-4
  Kd: 3.7 nM

## CC[C@H](C)[C@@H]1NC(=O)[C@H](Cc2ccc(O)cc2)NC(=O)[C@H](CC(=O)O)NC(=O)[C@@H]2CSSC[C@@H](C(=O)N[C@@H](CO)C(=O)O)NC(=O)CNC(=O)[C@H](CC(C)C)NC(=O)[C@H](CC(N)=O)NC(=O)[C@H](CC(=O)O)NC(=O)[C@H](CC(C)C)NC(=O)[C@H]([C@@H](C)CC)NC(=O)[C@H](CCC(=O)O)NC(=O)[C@H](CCC(=O)O)NC(=O)[C@H]([C@@H](C)CC)NC(=O)[C@H](CSSC[C@H](NC(=O)CCOCCOCCOCCOCCNC(=O)CN3CCN(CC(=O)O)CCN(CC(=O)O)CCN(CC(=O)O)CC3)C(=O)N[C@@H](CCC(=O)O)C(=O)N[C@@H](Cc3ccc(O)cc3)C(=O)N[C@@H](CC(=O)O)C(=O)N[C@@H](CCC(=O)O)C(=O)N[C@@H](CCC(N)=O)C(=O)N[C@@H](Cc3ccccc3)C(=O)N[C@@H](Cc3ccccc3)C(=O)N[C@@H]([C@@H](C)O)C(=O)N[C@@H](C)C(=O)N[C@@H](CC(C)C)C(=O)N[C@@H](CCCCN)C(=O)N[C@@H](CCCNC(=N)N)C(=O)N[C@@H](CC(C)C)C(=O)N[C@@H](CCCNC(=N)N)C(=O)NCC(=O)N[C@@H](CC(=O)O)C(=O)N[C@@H](CC(=O)O)C(=O)N[C@@H]([C@@H](C)CC)C(=O)N2)NC(=O)[C@H](CC(C)C)NC(=O)CNC(=O)[C@@H]2CCCN2C(=O)[C@H](CC(C)C)NC(=O)[C@H](Cc2ccc(O)cc2)NC(=O)[C@H](CCC(N)=O)NC(=O)[C@H](Cc2ccccc2)NC(=O)[C@H](CO)NC(=O)[C@H](C)NC(=O)[C@H](CCC(N)=O)NC1=O [Compound C236]
[1]
  tissue uptake at 4 h: 65.1 %ID/g
  tissue uptake at 24 h: 42.1 %ID/g
[2]
  half-life: > 12 h
[2]; plasma
  half-life: > 12 h

## CC[C@H](C)[C@@H]1NC(=O)[C@H](Cc2ccc(O)cc2)NC(=O)[C@H](CCC(=O)O)NC(=O)[C@@H]2CSSC[C@@H](C(=O)N[C@@H](CO)C(=O)O)NC(=O)CNC(=O)[C@H](CC(C)C)NC(=O)[C@H](CC(N)=O)NC(=O)[C@H](CC(=O)O)NC(=O)[C@H](CC(C)C)NC(=O)[C@H]([C@@H](C)CC)NC(=O)[C@H](CCC(=O)O)NC(=O)[C@H](CCC(=O)O)NC(=O)[C@H]([C@@H](C)CC)NC(=O)[C@H](CSSC[C@H](NC(=O)CCOCCOCCOCCOCCNC(=O)CN3CCN(CC(=O)O)CCN(CC(=O)O)CCN(CC(=O)O)CC3)C(=O)N[C@@H](CC(=O)O)C(=O)N[C@@H](Cc3ccc(O)cc3)C(=O)N[C@@H](CC(=O)O)C(=O)N[C@@H](CCC(=O)O)C(=O)N[C@@H](CCC(N)=O)C(=O)N[C@@H](Cc3ccccc3)C(=O)N[C@@H](Cc3ccccc3)C(=O)N[C@@H]([C@@H](C)O)C(=O)N[C@@H](C)C(=O)N[C@@H](CC(C)C)C(=O)N[C@@H](CCCCN)C(=O)N[C@@H](CCCNC(=N)N)C(=O)N[C@@H](CC(C)C)C(=O)N[C@@H](CCCNC(=N)N)C(=O)NCC(=O)NCC(=O)N[C@@H](CC(=O)O)C(=O)N[C@@H]([C@@H](C)CC)C(=O)N2)NC(=O)[C@H](CC(C)C)NC(=O)CNC(=O)[C@@H]2CCCN2C(=O)[C@H](CC(C)C)NC(=O)[C@H](Cc2ccc(O)cc2)NC(=O)[C@H](CCC(N)=O)NC(=O)[C@H](Cc2ccccc2)NC(=O)[C@H](CO)NC(=O)[C@H](C)NC(=O)[C@H](CCC(N)=O)NC1=O [Compound C241]
[1]
  tissue uptake at 4 h: 60.1 %ID/g
  tissue uptake at 24 h: 38.3 %ID/g
[2]
  half-life: > 12 h
[2]; plasma
  half-life: > 12 h

## CC[C@H](C)[C@@H]1NC(=O)[C@H](Cc2ccc(O)cc2)NC(=O)[C@H](CCC(=O)O)NC(=O)[C@@H]2CSSC[C@@H](C(=O)N[C@@H](CO)C(=O)O)NC(=O)CNC(=O)[C@H](CC(C)C)NC(=O)[C@H](CC(N)=O)NC(=O)[C@H](CC(=O)O)NC(=O)[C@H](CC(C)C)NC(=O)[C@H]([C@@H](C)CC)NC(=O)[C@H](CCC(=O)O)NC(=O)[C@H](CCC(=O)O)NC(=O)[C@H]([C@@H](C)CC)NC(=O)[C@H](CSSC[C@H](NC(=O)CCOCCOCCOCCOCCNC(=O)CN3CCN(CC(=O)O)CCN(CC(=O)O)CCN(CC(=O)O)CC3)C(=O)N[C@@H](CC(=O)O)C(=O)N[C@@H](Cc3ccc(O)cc3)C(=O)N[C@@H](CC(=O)O)C(=O)N[C@@H](CCC(=O)O)C(=O)N[C@@H](CCC(N)=O)C(=O)N[C@@H](Cc3ccccc3)C(=O)N[C@@H](Cc3ccccc3)C(=O)N[C@@H]([C@@H](C)O)C(=O)N[C@@H](C)C(=O)N[C@@H](CC(C)C)C(=O)N[C@@H](C)C(=O)N[C@@H](CCCNC(=N)N)C(=O)N[C@@H](CC(C)C)C(=O)N[C@@H](CCCNC(=N)N)C(=O)NCC(=O)N[C@@H](C)C(=O)N[C@@H](CC(=O)O)C(=O)N[C@@H]([C@@H](C)CC)C(=O)N2)NC(=O)[C@H](CCC(=O)O)NC(=O)CNC(=O)[C@@H]2CCCN2C(=O)[C@H](CC(C)C)NC(=O)[C@H](Cc2ccc(O)cc2)NC(=O)[C@H](CCC(N)=O)NC(=O)[C@H](Cc2ccccc2)NC(=O)[C@H](CO)NC(=O)[C@H](C)NC(=O)[C@H](CCC(N)=O)NC1=O [Compound C245]
[1]
  tissue uptake at 4 h: 61 %ID/g
  tissue uptake at 24 h: 33.5 %ID/g
[2]
  half-life: > 12 h
[2]; plasma
  half-life: > 12 h

## {DOTA-PEG4}-CEYDEQFFTALARLRGGDICEYIQARFQYLPGLCIEEILDNLGCS-OH (disulfide 1-34, 20-44 (inferred)) [Compound C265]
[2]
  half-life: > 12 h
[2]; plasma
  half-life: > 12 h

## {DOTA-PEG4}-CEYDEQFFTALARLRGGDICEYIQA[Arg(Me2s)]FQYLPGLCIEEILDNLGCS-OH (disulfide 1-34, 20-44 (inferred)) [Compound C268]
[2]
  half-life: > 12 h
[2]; plasma
  half-life: > 12 h
